“And” between values parts separate entries of the source, which are not always exact repeats. Equal entries are not always repeated.
Settings: Liquid, Vibrating tube method

CCCCCCC(=O)OCC(COC(=O)CCCCCC)(COC(=O)CCCCCC)COC(=O)CCCCCC [pentaerythritol tetraheptanoate]
Settings	mass density
283.15 K, 2785.2 kPa	987.5 kg/m3
283.15 K, 4763 kPa	988.5 kg/m3
283.15 K, 4768.7 kPa	988.7 kg/m3
283.15 K, 5143.5 kPa	988.8 kg/m3
283.15 K, 5150.3 kPa	988.9 kg/m3
283.15 K, 5157.6 kPa	988.7 kg/m3
283.15 K, 5164.1 kPa	988.8 kg/m3
283.15 K, 5170.9 kPa	988.9 kg/m3
283.15 K, 5178.5 kPa	988.9 kg/m3
283.15 K, 5185.2 kPa	988.8 kg/m3
283.15 K, 5558.2 kPa	989.1 kg/m3
283.15 K, 5573.4 kPa	989.1 kg/m3
283.15 K, 5748.5 kPa	989.3 kg/m3
283.15 K, 5758 kPa	989.2 kg/m3
283.15 K, 5766.1 kPa	989.3 kg/m3
283.15 K, 9627.4 kPa	991.5 kg/m3
283.15 K, 9754 kPa	991.6 kg/m3
283.15 K, 9827.4 kPa	991.6 kg/m3
283.15 K, 15376 kPa	994.5 kg/m3
283.15 K, 15402 kPa	994.5 kg/m3
283.15 K, 15424 kPa	994.5 kg/m3
283.15 K, 15447 kPa	994.5 kg/m3
283.15 K, 15473 kPa	994.5 kg/m3
283.15 K, 15496 kPa	994.5 kg/m3
283.15 K, 15518 kPa	994.4 kg/m3
283.15 K, 15545 kPa	994.6 kg/m3
283.15 K, 16561 kPa	995.2 kg/m3
283.15 K, 16643 kPa	995.1 kg/m3
283.15 K, 16700 kPa	995.2 kg/m3
283.15 K, 17302 kPa	995.5 kg/m3
283.15 K, 17330 kPa	995.5 kg/m3
283.15 K, 17392 kPa	995.5 kg/m3
283.15 K, 17420 kPa	995.6 kg/m3
283.15 K, 19724 kPa	996.7 kg/m3
283.15 K, 24690 kPa	999.4 kg/m3
283.15 K, 24805 kPa	999.3 kg/m3
283.15 K, 25965 kPa	999.9 kg/m3
283.15 K, 26012 kPa	1000.1 kg/m3
283.15 K, 26052 kPa	1000.1 kg/m3
283.15 K, 26093 kPa	1000.1 kg/m3
283.15 K, 26133 kPa	1000.1 kg/m3
283.15 K, 26183 kPa	1000.1 kg/m3
283.15 K, 26224 kPa	1000.1 kg/m3
283.15 K, 26317 kPa	1000.1 kg/m3
283.15 K, 26361 kPa	1000.1 kg/m3
283.15 K, 26458 kPa	1000.2 kg/m3
283.15 K, 26749 kPa	1000.4 kg/m3
283.15 K, 26807 kPa	1000.4 kg/m3
283.15 K, 26833 kPa	1000.4 kg/m3
283.15 K, 26860 kPa	1000.5 kg/m3
283.15 K, 26892 kPa	1000.5 kg/m3
283.15 K, 26918 kPa	1000.5 kg/m3
283.15 K, 26978 kPa	1000.5 kg/m3
283.15 K, 27117 kPa	1000.7 kg/m3
283.15 K, 27150 kPa	1000.5 kg/m3
283.15 K, 27176 kPa	1000.7 kg/m3
283.15 K, 27209 kPa	1000.6 kg/m3
283.15 K, 27237 kPa	1000.6 kg/m3
283.15 K, 27264 kPa	1000.6 kg/m3
283.15 K, 27324 kPa	1000.7 kg/m3
283.15 K, 27352 kPa	1000.7 kg/m3
283.15 K, 27599 kPa	1000.8 kg/m3
283.15 K, 27618 kPa	1000.8 kg/m3
283.15 K, 27642 kPa	1000.9 kg/m3
283.15 K, 27661 kPa	1000.8 kg/m3
283.15 K, 27681 kPa	1000.9 kg/m3
283.15 K, 27896 kPa	1001.1 kg/m3
283.15 K, 27916 kPa	1001.1 kg/m3
283.15 K, 27936 kPa	1000.9 kg/m3
283.15 K, 27956 kPa	1001 kg/m3
283.15 K, 28022 kPa	1001 kg/m3
283.15 K, 30230 kPa	1002.1 kg/m3
283.15 K, 33971 kPa	1003.9 kg/m3
283.15 K, 34009 kPa	1004.1 kg/m3
283.15 K, 34041 kPa	1003.9 kg/m3
283.15 K, 34067 kPa	1004 kg/m3
283.15 K, 34100 kPa	1004.1 kg/m3
283.15 K, 34146 kPa	1004.3 kg/m3
283.15 K, 34179 kPa	1004 kg/m3
283.15 K, 34214 kPa	1004.2 kg/m3
283.15 K, 34255 kPa	1004.1 kg/m3
283.15 K, 34291 kPa	1004.1 kg/m3
283.15 K, 34334 kPa	1004.2 kg/m3 and 1004.1 kg/m3
283.15 K, 34346 kPa	1004.1 kg/m3
283.15 K, 34372 kPa	1004.2 kg/m3
283.15 K, 34412 kPa	1004.3 kg/m3
283.15 K, 34450 kPa	1004.2 kg/m3
283.15 K, 34481 kPa	1004.2 kg/m3
283.15 K, 34492 kPa	1004.2 kg/m3
283.15 K, 34503 kPa	1004.4 kg/m3
283.15 K, 34516 kPa	1004.2 kg/m3
283.15 K, 34528 kPa	1004.3 kg/m3
283.15 K, 34542 kPa	1004.4 kg/m3
283.15 K, 34553 kPa	1004.4 kg/m3
283.15 K, 34565 kPa	1004.4 kg/m3
283.15 K, 34574 kPa	1004.3 kg/m3
283.15 K, 34579 kPa	1004.3 kg/m3
283.15 K, 34594 kPa	1004.5 kg/m3
283.15 K, 34601 kPa	1004.3 kg/m3
283.15 K, 34603 kPa	1004.2 kg/m3
283.15 K, 34606 kPa	1004.3 kg/m3
303.14 K, 99.6 kPa	970.8 kg/m3
303.14 K, 99.8 kPa	970.7 kg/m3 and 970.8 kg/m3 and 970.9 kg/m3
303.14 K, 99.9 kPa	970.8 kg/m3 and 970.9 kg/m3 and 970.7 kg/m3
303.14 K, 100.1 kPa	970.7 kg/m3 and 970.6 kg/m3
303.14 K, 100.3 kPa	970.7 kg/m3
303.14 K, 100.6 kPa	970.8 kg/m3
303.14 K, 101.7 kPa	970.7 kg/m3
303.14 K, 103.8 kPa	970.7 kg/m3
303.14 K, 107.4 kPa	970.8 kg/m3
303.14 K, 118.5 kPa	970.8 kg/m3
303.14 K, 136.8 kPa	970.7 kg/m3

— the NIST ThermoML archive (doi:10.1021/je060271a)
